Measured values as given in US6727288B2, “Method for treating bone fracture” (Juneng Industry Co., Ltd., priority 2001, dated 2004).
Marks after values point to notes of the source that are not given here.

Legend:
osteoblasts (OB2) [1] = experiment: Osteoblast (OB2) proliferation, MTT method; type: cell-based, SD rat; settings: for A570 (X ± SD): 72 hours, MTT, n = 4
Description: (§1) 1) Sampling: after a newborn (within 24 hours) SD rat was disinfected, the calvaria were excised under sterilization conditions. The calvaria were predigested by 0.25% trypsin for 10-15 minutes firstly, then oscillated and digested by 0.1% collagenase II at 37° C. for 60 minutes. The cells were collected by centrifugation at 1000 rpm.
(§2) 2) Cell culture: The isolated cells were inoculated into culture flask at a concentration of 1×10^4/cm^2, wherein the culture solution is 10% of NCS-MEM. The cells were cultured in an incubator with 5% CO2 at 37° C., then passaged until half confluence. The second generation of secondary cells (OB2) were tested for pharmacodynamics.
(§3) 3) Medicines: Each test medicine was formulated at a concentration of 0.1 mol/L, and sterilized by high pressure for later use.
(§4) 2.24 g of calcium gluconate was dissolved in 50 ml of deionized water at room temperature. The control group was deionized water.
OB2 were inoculated into 24 well COSTOR culture plate at a density of 6×10^3 per well. 24 hours later, the above culture solution was replaced by culture solution containing varying concentrations of medicines ranging from 10^−9 to 10^−3 mol/L. 72 hours after adding medicines, the cells were tested through Labsystems Multiskan MS (Finland) )ELISA analyzer by MTT method. OD value at 570 nm was used to reflect cell proliferation.

[2] = test system: ALP activity of osteoblast (OB2); experiment: ALP activity of OB2 cell lysates, para-nitrobenzene phosphate method; type: cell-based, SD rat; settings: 10^−3 mol/L; for ALP activity of osteoblast: n = 4
Description: as §1, §2, §3, §4
OB2 was inoculated into 24 well COSTOR culture plate at a density of 2×10^4 per well. 24 hours later, the above culture solution was replaced by medium containing medicines. Then the culture solution was changed every 48 hours until confluence of cells was reached. ALP activity of cell lysates was measured by para-nitrobenzene phosphate method. Content of protein in cell lysates was measured by Coomassie brilliant blue method.

osteoblasts (OB2) [3] = experiment: Mineralization function of OB2, alizarin red nodule count; type: cell-based, SD rat; settings: for Number of mineralization nodules: 14 days, alizarin red, n = 4
Description: as §1, §2, §3, §4
OB2 was inoculated into 6 well COSTOR culture plate at a density of 5×10^4 per well. 24 hours later, the above culture solution was replaced by culture solution containing medicines. Then the solution was changed every 48 hours. 14 days later, the cells were fixed and stained with alizarin red.

[4] = test system: α-COLI mRNA in osteoblast (OB2); experiment: mRNA expression of α-COLI in osteoblasts by quantitative RT-PCR; type: cell-based, SD rat; settings: 10^−3 mol/L; for level of α-COLI mRNA compared with control group: quantitative RT-PCR, in words
Description: 1. Cell Culture: The culture method of primary osteoblast was the same as that of the previous test. OB2 was inoculated at density of 1×10^4 cells/cm^2. […] Culture medium was changed every 48 hours and the medicines were added. Total RNA of the cells was extracted one week later.
2. Extraction of RNA: The cells were digested with 0.25% trypsin, and were centrifuged at 1000 rpm for 5 min to collect cell pellets. Total RNA was extracted with TRIzol reagent (Gibco Co.) method.
3. Reverse transcriptase polymerase chain reaction (RT-PCR): Access RT-PCR System kit (Promega) was used in the test, following the directions of the kit. The RT-PCR of the reaction mixture was performed in PCR analyzer (Bio-Rad Inc.) at 48° C. for 45 min. Inactivate enzyme at 94° C. for 2 min, then 30 cycles of PCR reaction: […] at 94° C. for degeneration, 1 min at 54° C. for annealing, 2 min at 72° C. for extension, and after the last cycle, 7 min at 72° C. for another extension. 9 μl PCR products were analyzed in 1.5% agarose gel electrophoresis. Then the bands were analyzed by image analysis system (Image Master VDS). Optical density value was calibrated by internal reference-Actin, and the calibration values were analyzed statistically.
4. Medicines: Each test medicine was formulated at the concentration of 0.1 mol/L, and sterilized by high pressure for later use. […] Calcium gluconate, Shanghai Huanghai Pharmaceutical Factory, 2.24 g was dissolved in 50 ml deionized water.

emasculated rat = settings: in words

Compound	A570 (X ± SD) (osteoblasts (OB2) [1]; test I, 10^−3 mol/L)	A570 (X ± SD) (osteoblasts (OB2) [1]; test I, 10^−5 mol/L)	A570 (X ± SD) (osteoblasts (OB2) [1]; test I, 10^−7 mol/L)	A570 (X ± SD) (osteoblasts (OB2) [1]; test I, 10^−9 mol/L)	A570 (X ± SD) (osteoblasts (OB2) [1]; test II, 10^−3 mol/L)	A570 (X ± SD) (osteoblasts (OB2) [1]; test II, 10^−5 mol/L)	A570 (X ± SD) (osteoblasts (OB2) [1]; test II, 10^−7 mol/L)	A570 (X ± SD) (osteoblasts (OB2) [1]; test II, 10^−9 mol/L)	A570 (X ± SD) (osteoblasts (OB2) [1]; test III, 10^−3 mol/L)	A570 (X ± SD) (osteoblasts (OB2) [1]; test III, 10^−5 mol/L)	A570 (X ± SD) (osteoblasts (OB2) [1]; test III, 10^−7 mol/L)	A570 (X ± SD) (osteoblasts (OB2) [1]; test III, 10^−9 mol/L)	ALP activity of osteoblast ([2]; Experiment 1)	ALP activity of osteoblast ([2]; Experiment 2)	ALP activity of osteoblast ([2]; Experiment 3)	Number of mineralization nodules (osteoblasts (OB2) [3])	level of α-COLI mRNA compared with control group [4]	also measured
[Ca+2].[Cl-].[Cl-] [Calcium chloride]	0.325 ± 0.052	0.277 ± 0.037	0.239 ± 0.005^&	0.237 ± 0.005^&	0.423 ± 0.028***^&	0.324 ± 0.047^&	0.268 ± 0.022^&	0.292 ± 0.023	0.281 ± 0.014	0.268 ± 0.025^&	0.229 ± 0.09	0.267 ± 0.016	0.119 ± 0.039 U/mg of protein	0.122 ± 0.08 U/mg of protein	0.102 ± 0.008 U/mg of protein	6.4 ± 1.673^&	–	–
Calcium gluconate	0.381 ± 0.052	0.351 ± 0.039	0.267 ± 0.009*^&	0.265 ± 0.025	0.359 ± 0.072**^&	0.301 ± 0.051	0.268 ± 0.019*^&	0.248 ± 0.017^&	0.229 ± 0.021	0.242 ± 0.012	0.233 ± 0.021^$	0.229 ± 0.017	0.115 ± 0.009 U/mg of protein	0.140 ± 0.016 U/mg of protein	0.107 ± 0.025 U/mg of protein	6.2 ± 2.588^&	no significant difference	Relative expression amount of α-COLI ([4]; one week, calibrated by β-Actin, X ± SD, n = 3): 1.2524 ± 0.377
calcium L-threonate	0.458 ± 0.019	0.405 ± 0.085	0.401 ± 0.082	0.387 ± 0.087	0.486 ± 0.010	0.449 ± 0.041	0.371 ± 0.047	0.418 ± 0.047	0.386 ± 0.024	0.327 ± 0.034	0.338 ± 0.048	0.316 ± 0.073	0.156 ± 0.002 U/mg of protein	0.208 ± 0.003 U/mg of protein	0.164 ± 0.026 U/mg of protein	12.0 ± 3.742	increased significantly	effect on proliferation of osteoblast (osteoblasts (OB2) [1]; 10^−9-10^−3 mol/L, in words): promoting proliferation of osteoblast; ALP activity of OB2 versus control group ([2]; in words): higher than that of control group; number of mineralization nodules versus other groups (osteoblasts (OB2) [3]; within two weeks, in words): the largest; biomechanical parameters (emasculated rat): significantly increase; bone density (emasculated rat): significantly increase; content of bone calcium (emasculated rat): significantly increase
